This passage reports melting point results from patent US6677488B2, “Substituted biphenyl compounds for the treatment of inflammation” (G.D. Searle & Co., priority 1995, dated 2004).

`CS(=O)(=O)c1ccc(-c2ccccc2-c2ccc(F)cc2)cc1` [Example 1, 1-(4-Fluorophenyl)-2-[4-(methylsulfonyl)phenyl]benzene]: the melting point lay in the range of 178 to 179 °C. The value for `NS(=O)(=O)c1ccc(-c2ccccc2-c2ccc(F)cc2)cc1` [Example 2, 4-[2-(4-Fluorophenyl)phenyl]benzenesulfonamide] was 187.3 to 188.2 °C; that for `NS(=O)(=O)c1ccc(-c2ccccc2-c2ccc(Cl)cc2)cc1` [Example 3, 4-[2-(4-Chlorophenyl)phenyl]benzenesulfonamide] was 206.2 to 207 °C; that for `COc1ccc(-c2ccccc2-c2ccc(S(C)(=O)=O)cc2)cc1F` [Example 4, 2-Fluoro-1-methoxy-4-[2-[4-(methylsulfonyl)phenyl]phenyl]benzene] was 136.2 to 136.6 °C.

On to `COc1ccc(-c2ccccc2-c2ccc(S(C)(=O)=O)cc2)cc1Cl` [Example 5, 2-Chloro-1-methoxy-4-[2-[4-(methylsulfonyl)phenyl]phenyl]benzene], for which the melting point lay in the range of 161.5 to 162.3 °C. The value for `COc1ccc(-c2ccccc2-c2ccc(S(N)(=O)=O)cc2)cc1F` [Example 6, 4-[2-(3-Fluoro-4-methoxyphenyl)phenyl]benzenesulfonamide] was 143.5 to 145.5 °C (dec.); that for `COc1ccc(-c2ccccc2-c2ccc(S(N)(=O)=O)cc2)cc1Cl` [Example 7, 4-[2-(3-Chloro-4-methoxyphenyl)phenyl]benzenesulfonamide] was 179.5 to 180.2 °C. The value for `CS(=O)(=O)c1ccc(-c2ccccc2-c2ccc(Cl)cc2)cc1` [Example 8, 1-(4-Chlorophenyl)-2-[4-(methylsulfonyl)phenyl]benzene] was 180.2 to 180.6 °C; that for `NS(=O)(=O)c1ccc(-c2ccccc2-c2ccc(C(F)(F)F)cc2)cc1` [Example 9, 4-[2-[4-(Trifluoromethyl)phenyl]phenyl]benzenesulfonamide] was 187.5 to 187.8 °C; that for `CS(=O)(=O)c1ccc(-c2ccccc2-c2ccc(F)c(Cl)c2)cc1` [Example 10, 2-Chloro-1-fluoro-4-[2-[4-(methylsulfonyl)phenyl]phenyl]benzene] was 179.5 to 181.1 °C.

For the compound `CS(=O)(=O)c1ccc(-c2cc(F)c(F)cc2-c2ccc(F)cc2)cc1` [Example 11, 1,2-Difluoro-4-(4-fluorophenyl)-5-[4-(methylsulfonyl)phenyl]benzene], the melting point was 172.8 to 173.5 °C.

The compound `NS(=O)(=O)c1ccc(-c2ccccc2-c2ccc(F)c(Cl)c2)cc1` [Example 12, 4-[2-(3-Chloro-4-fluorophenyl)phenyl]benzenesulfonamide] showed a melting point of 192.5 to 193.2 °C. The value for `NS(=O)(=O)c1ccc(-c2cc(F)c(F)cc2-c2ccc(F)cc2)cc1` [Example 13, 4-[3,4-Difluoro-6-(4-fluorophenyl)phenyl]benzenesulfonamide] was 190.2 to 191.5 °C; that for `CS(=O)(=O)c1ccc(-c2cc(F)c(F)cc2-c2ccc(F)c(Cl)c2)cc1` [Example 14, 1-(3-Chloro-4-fluorophenyl)-4,5-difluoro-2-[4-(methylsulfonyl)phenyl]benzene] was 172.2 to 172.5 °C.

Take `NS(=O)(=O)c1ccc(-c2c(F)c(F)c(F)c(F)c2-c2ccc(F)cc2)cc1` [Example 15, 4-[2,3,4,5-Tetrafluoro-6-(4-fluorophenyl)phenyl]benzenesulfonamide]: the melting point lay within 202 to 203 °C. The value for `NS(=O)(=O)c1ccc(-c2cc(F)c(F)cc2-c2ccc(F)c(Cl)c2)cc1` [Example 16, 4-[2-(3-Chloro-4-fluorophenyl)-4,5-difluorophenyl]benzenesulfonamide] was 162.5 to 162.8 °C; that for `CS(=O)(=O)c1ccc(-c2cc3c(cc2-c2ccc(F)cc2)OCO3)cc1` [Example 17, 5-(4-Fluorophenyl)-6-[4-(methylsulfonyl)phenyl]-1,3-benzodioxole] was 173 to 174 °C. In turn, `COc1ccc(-c2cc(F)c(F)cc2-c2ccc(S(C)(=O)=O)cc2)cc1Cl` [Example 18, 1-(3-Chloro-4-methoxyphenyl)-4,5-difluoro-2-[4-(methylsulfonyl)phenyl]benzene] showed a melting point of 147.5 to 148.5 °C. The value for `COc1ccc(-c2cc(F)c(F)cc2-c2ccc(S(C)(=O)=O)cc2)cc1F` [Example 19, 1,2-Difluoro-4-(3-fluoro-4-methoxyphenyl)-5-[4-(methylsulfonyl)phenyl]benzene] was 159.2 to 159.7 °C; that for `COc1ccc(-c2cc(F)c(F)cc2-c2ccc(S(N)(=O)=O)cc2)cc1Cl` [Example 20, 4-[2-(3-Chloro-4-methoxyphenyl)-4,5-difluorophenyl]benzenesulfonamide] was 70 °C (dec.).

Consider `COc1ccc(-c2cc(F)c(F)cc2-c2ccc(S(N)(=O)=O)cc2)cc1F` [Example 21, 4-[4,5-Difluoro-2-(3-fluoro-4-methoxyphenyl)phenyl]benzenesulfonamide], for which the melting point fell in the range of 132.2 to 132.8 °C. The value for `NS(=O)(=O)c1ccc(-c2cc3c(cc2-c2ccc(F)cc2)OCO3)cc1` [Example 22, 4-[6-(4-Fluorophenyl)-1,3-benzodioxol-5-yl]benzenesulfonamide] was 191 to 192.5 °C; that for `Cc1ccc(-c2cc(F)c(F)cc2-c2ccc(S(C)(=O)=O)cc2)cc1` [Example 23, 1,2-Difluoro-4-(4-methylphenyl)-5-[4-(methylsulfonyl)phenyl]benzene] was 147 to 148 °C; that for `CS(=O)(=O)c1ccc(-c2cc(F)c(F)cc2-c2ccc3c(c2)OCO3)cc1` [Example 24, 5-[4,5-Difluoro-2-[4-(methylsulfonyl)phenyl]phenyl]-1,3-benzodioxole] was 110 to 111 °C.

On to `Cc1ccc(-c2cc(F)c(F)cc2-c2ccc(S(N)(=O)=O)cc2)cc1` [Example 25, 4-[4,5-Difluoro-2-(4-methylphenyl)phenyl]benzenesulfonamide], for which the melting point is 103 to 104 °C.

For the compound `NS(=O)(=O)c1ccc(-c2cc(F)c(F)cc2-c2ccc3c(c2)OCO3)cc1` [Example 26, 4-[2-(1,3-Benzodioxol-5-yl)-4,5-difluorophenyl]benzenesulfonamide], the melting point fell in the range of 142 to 143 °C.

`Cc1ccc(-c2cc(F)c(F)cc2-c2ccc(S(C)(=O)=O)cc2)cc1Cl` [Example 27, 1-(3-Chloro-4-methylphenyl)-4,5-difluoro-2-[4-(methylsulfonyl)phenyl]benzene] came in with a melting point of 138 to 139 °C. The value for `CN(C)c1ccc(-c2cc(F)c(F)cc2-c2ccc(S(C)(=O)=O)cc2)cc1Cl` [Example 28, 2-Chloro-4-[4,5-difluoro-2-[4-(methylsulfonyl)phenyl]phenyl]-N,N-dimethylbenzenamine] was 129 to 130 °C; that for `Cc1ccc(-c2cc(F)c(F)cc2-c2ccc(S(N)(=O)=O)cc2)cc1Cl` [Example 29, 4-[2-(3-Chloro-4-methylphenyl)-4,5-difluorophenyl]benzenesulfonamide] was 139 to 140 °C. `CN(C)c1ccc(-c2cc(F)c(F)cc2-c2ccc(S(N)(=O)=O)cc2)cc1Cl` [Example 30, 4-[2-[3-Chloro-4-(N,N-dimethylamino)phenyl]-4,5-difluorophenyl]benzenesulfonamide]: the melting point lay within 193 to 194 °C.

In turn, `Cc1cc(-c2cc(F)c(F)cc2-c2ccc(S(C)(=O)=O)cc2)ccc1F` [Example 31, 1,2-Difluoro-4-(4-fluoro-3-methylphenyl)-5-[4-(methylsulfonyl)phenyl]benzene] had a melting point of 167.2 to 167.5 °C. Consider `Cc1cc(-c2cc(F)c(F)cc2-c2ccc(S(C)(=O)=O)cc2)ccc1Cl` [Example 32, 4-(4-Chloro-3-methylphenyl)-1,2-difluoro-5-[4-(methylsulfonyl)phenyl]benzene], for which the melting point is 151.5 to 152.2 °C. The value for `Cc1ccc(-c2cc(F)c(F)cc2-c2ccc(S(C)(=O)=O)cc2)cc1C` [Example 33, 1,2-Difluoro-4-(3,4-dimethylphenyl)-5-[4-(methylsulfonyl)phenyl]benzene] was 125.1 to 125.8 °C. The value for `Cc1cc(-c2cc(F)c(F)cc2-c2ccc(S(N)(=O)=O)cc2)ccc1F` [Example 34, 4-[4,5-Difluoro-2-(4-fluoro-3-methylphenyl)phenyl)benzenesulfonamide] was 151.5 to 152 °C.

Regarding `COc1ccc(-c2cc(F)c(F)cc2-c2ccc(S(C)(=O)=O)cc2)cc1C` [Example 35, 1,2-Difluoro-4-(4-methoxy-3-methylpheny)-5-[4-(methylsulfonyl)phenyl]benzene], the melting point lay within 160.5 to 161.5 °C. The value for `Cc1cc(-c2cc(F)c(F)cc2-c2ccc(S(N)(=O)=O)cc2)ccc1Cl` [Example 36, 4-[2-(4-Chloro-3-methylphenyl)-4,5-difluorophenyl]benzenesulfonamide] was 141.5 to 142.8 °C; that for `Cc1ccc(-c2cc(F)c(F)cc2-c2ccc(S(N)(=O)=O)cc2)cc1C` [Example 37, 4-[4,5-Difluoro-2-(3,4-dimethylphenyl)phenyl]benzenesulfonamide] was 132.8 to 133.9 °C. The value for `COc1c(Cl)cc(-c2cc(F)c(F)cc2-c2ccc(S(N)(=O)=O)cc2)cc1Cl` [Example 38, 4-[2-(3,5-Dichloro-4-methoxyphenyl)-4,5-difluorophenyl]benzenesulfonamide] was 145.5 to 146 °C. The value for `COc1ccc(-c2cc(F)c(F)cc2-c2ccc(S(N)(=O)=O)cc2)cc1C` [Example 39, 4-[4,5-Difluoro-2-(4-methoxy-3-methylphenyl)phenyl]benzenesulfonamide] was 120 to 121.8 °C; that for `COc1ccc(-c2cc(F)c(F)cc2-c2ccc(S(C)(=O)=O)cc2)cc1OC` [Example 40, 1,2-Difluoro-4-(3,4-dimethoxypheny)-5-[4-(methylsulfonyl)phenyl]benzene] was 140 to 141 °C.

Compound `CS(=O)(=O)c1ccc(-c2cc(F)c(F)cc2-c2ccc3c(c2)OCCO3)cc1` [Example 41] had a melting point of 82 to 83 °C. Turning to `COc1ccc(-c2cc(F)c(F)cc2-c2ccc(S(N)(=O)=O)cc2)cc1OC` [Example 42, 4-[4,5-Difluoro-2-(3,4-dimethoxyphenyl)phenyl]benzenesulfonamide], the melting point was in the range of 157 to 158 °C.

Usually melting point stands for the temperature, or range, at which the solid turns liquid.
